We go through 33 molecules from patent US10654847B2, “Substituted 2-(4-heterocyclylbenzyl)isoindolin-1-one analogs as positive allosteric modulators of the muscarinic acetylcholine receptor M1” (Vanderbilt University, priority 2011, dated 2020).

Structures are written as SMILES. Where only a bound is given, the exact number is not on record here.

This assay addresses T1, mAChR M1 (UniProt P11229).
T1 sequence (P11229 1-460): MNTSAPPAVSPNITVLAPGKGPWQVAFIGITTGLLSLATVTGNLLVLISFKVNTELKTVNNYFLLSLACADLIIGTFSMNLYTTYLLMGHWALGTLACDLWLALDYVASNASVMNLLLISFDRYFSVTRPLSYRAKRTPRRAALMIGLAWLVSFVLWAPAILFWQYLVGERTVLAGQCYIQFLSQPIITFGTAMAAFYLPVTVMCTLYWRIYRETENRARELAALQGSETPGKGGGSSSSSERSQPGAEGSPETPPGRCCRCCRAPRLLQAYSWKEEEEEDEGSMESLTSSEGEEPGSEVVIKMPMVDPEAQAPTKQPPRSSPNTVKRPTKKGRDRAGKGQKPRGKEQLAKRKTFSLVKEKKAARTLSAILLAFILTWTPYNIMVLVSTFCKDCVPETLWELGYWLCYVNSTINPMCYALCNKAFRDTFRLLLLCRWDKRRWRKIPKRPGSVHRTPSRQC
The assay is described as follows: mAChR M1 cell-based functional assay (calcium mobilization, potentiation of EC20 acetylcholine response). The settings on record: for Emax (%): % ACh maximum at 30 μM, mAChR M1-expressing CHO-K1 cells, calcium flux; for pEC50 / EC50: positive allosteric modulation of EC20 ACh response, mAChR M1 CHO-K1 cells; for pEC50: <5 estimated where no plateau; for EC50: >10 μM estimated where no plateau, read-out: EC50. Here is the method:
Chinese hamster ovary (CHO-K1) cells stably expressing rat (r)M1 were purchased from the American Type Culture Collection and cultured according to their indicated protocol. […] To make stable rM2, hM2, rM3, hM4, and rM4 cell lines for use in calcium mobilization assays, these cells also were stably transfected with a chimeric G-protein (Gqi5) (provided by B. R. Conklin, University of California, San Francisco) using Lipofectamine 2000. rM1, hM1, rM3, hM3, rM5, and hM5 cells were grown in Ham's F-12 medium containing 10% heat-inactivated fetal bovine serum (FBS), 20 mM HEPES, and 50 μg/mL G418 sulfate. rM2-Gqi5, hM2-Gqi5, and hM4-Gqi5 cells were grown in the same medium also containing 500 μg/mL Hygromycin B. Stable rM4-Gqi5 cells were grown in DMEM containing 10% heat-inactivated FBS, 20 mM HEPES, 400 μg/mL G418 sulfate, and 500 μg/mL Hygromycin B.
For high throughput measurement of agonist-evoked increases in intracellular calcium, CHO-K1 cells stably expressing muscarinic receptors were plated in growth medium lacking G418 and hygromycin at 15,000 cells/20 μL/well in Greiner 384-well black-walled, tissue culture (TC)-treated, clear-bottom plates (VWR). Cells were incubated overnight at 37° C. and 5% CO2. […] Compound master plates were formatted in an 11 point CRC format (1:3 dilutions) in 100% DMSO with a starting concentration of 10 mM using the BRAVO liquid handler (Agilent). Test compound CRCs were then transferred to daughter plates (240 nL) using the Echo acoustic plate reformatter (Labcyte, Sunnyvale, Calif.) and then diluted into assay buffer (40 μL) to a 2× stock using a Thermo Fisher Combi (Thermo Fisher Scientific, Waltham, Mass.).
Calcium flux was measured using the Functional Drug Screening System (FDSS) 6000 (Hamamatsu Corporation, Tokyo, Japan) as an increase in the fluorescent static ratio. Compounds were applied to cells (20 μL, 2×) using the automated system of the FDSS 6000 at 4 s into the 300 s protocol and the data were collected at 1 Hz. […] Agonist activity was analyzed as a concentration-dependent increase in calcium mobilization upon compound addition. Positive allosteric modulator activity was analyzed as a concentration-dependent increase in the EC20 acetylcholine response. Antagonist activity was analyzed as a concentration-dependent decrease in the EC80 acetylcholine response. Concentration-response curves were generated using a four-parameter logistical equation in XLfit curve fitting software (IDBS, Bridgewater, N.J.) for Excel (Microsoft, Redmond, Wash.) or Prism (GraphPad Software, Inc., San Diego, Calif.).
The above described assay was also operated in a second mode where an appropriate fixed concentration of the present compounds were added to the cells after establishment of a fluorescence baseline for about 3 seconds, and the response in cells was measured. […] Data were reduced as described above and the EC50 values for the agonist in the presence of test compound were determined by nonlinear curve fitting. A decrease in the EC50 value of the agonist with increasing concentrations of the present compounds (a leftward shift of the agonist concentration-response curve) is an indication of the degree of muscarinic positive allosteric modulation at a given concentration of the present compound. An increase in the EC50 value of the agonist with increasing concentrations of the present compounds (a rightward shift of the agonist concentration response curve) is an indication of the degree of muscarinic antagonism at a given concentration of the present compound. The second mode also indicates whether the present compounds also affect the maximum response of the muscarinic receptor to agonists.
The calcium mobilization assay was also used to determine “efficacy”.

By pEC50 is commonly meant −log10 of the EC50, conventionally taken in molar units. A word on the EC50: it is the concentration giving half of the maximal effect. Turning to `O=C1c2cccnc2CN1Cc1ccc(-c2ccncc2)cc1F` [Example B41], the “Emax (%)” value worked out at 70%, the pEC50 is listed as 5.33 and the concentration for a half-maximal effect (EC50) was 4680 nM.
For the molecule `Cn1cc(-c2ccc(CN3Cc4ccncc4C3=O)c(F)c2)cn1` [Example B8], the “Emax (%)” value is given as 79%, the pEC50 is on record as 5.55 and the EC50 is 2800 nM.
For `Cn1cc(-c2cnc(CN3Cc4cccnc4C3=O)c(F)c2)cn1` [Example B20], in that order: 43%, under 5.00 and over 10000 nM.
Take `Cc1noc(-c2ccc(CN3Cc4ccccc4S3(=O)=O)cc2)n1` [Example B118]: the “Emax (%)” value was under 30%, the pEC50 is reported as under 5.00 and the EC50 is over 10000 nM.
Turning to `Cn1cc2cc(Nc3ccc(CN4Cc5ncccc5C4=O)c(F)c3)ccc2n1` [Example B58], the “Emax (%)” value was found to be 66%, the pEC50 is 5.43 and the EC50 was 3720 nM.
Take `Cc1nn(C)cc1-c1ccc(CN2Cc3ccccc3C2=O)c(F)c1` [Example B2]: the “Emax (%)” value turned out to be 78%, the pEC50 is given as 5.82 and the EC50 is 1500 nM.
As for `Cn1cc(-c2cnc(CN3Cc4ncccc4C3=O)c(F)c2)cn1` [Example B18], the “Emax (%)” value worked out at 40%, the pEC50 is under 5.00 and the EC50 was over 10000 nM.
As to `Cn1cc2cc(-c3ccc(CN4Cc5cccnc5C4=O)c(F)c3)ccc2n1` [Example B71], the “Emax (%)” value is 72%, the pEC50 is 6.15 and the EC50 is 708 nM.
For `O=C1Cc2cc(-c3ccc(CN4Cc5ncccc5C4=O)c(F)c3)ccc2N1` [Example B86], in that order: 58%, 6.25 and 562 nM.
As to `Cn1nccc1-c1ccc(CN2Cc3ccccc3C2=O)c(F)c1` [Example B19], the “Emax (%)” value worked out at 40%, the negative-log EC50 (pEC50) is given as under 5.00 and the EC50 is over 10000 nM.
`Cn1cc2ccc(-c3ccc(F)c(CN4Cc5ncccc5C4=O)c3)cc2n1` [Example B108]: the “Emax (%)” value was found to be 56%, the pEC50 is 5.07 and the EC50 is 8510 nM.
For `Cn1cc2c(n1)CCN(c1ccc(CN3Cc4ncccc4C3=O)c(F)c1)C2` [Example B112], in that order: 32%, under 5.00 and over 10000 nM.
Consider `O=C1c2cccnc2CN1Cc1ccc(-c2ccnc(F)c2)cc1F` [Example B14], for which the “Emax (%)” value stood at 36%, the pEC50 is recorded as under 5.00 and the EC50 is over 10000 nM.
`O=C1c2cccnc2CN1Cc1ccc(-c2cnc3ccccc3c2)cc1F` [Example B37]: the “Emax (%)” value stood at 31%, the pEC50 is on record as 6.41 and the EC50 was 389 nM.
Take `O=C1c2cccnc2CN1Cc1c(F)cc(-c2cnc3ccccn23)cc1F` [Example B88]: the “Emax (%)” value came out at 63%, the pEC50 is listed as under 5.00 and the EC50 is over 10000 nM.
Consider `O=C1c2cccnc2CN1Cc1c(F)cc(-c2ccc3c(c2)OCCO3)cc1F` [Example B94], for which the “Emax (%)” value came out at 36%, the negative-log EC50 (pEC50) is 6.71 and the concentration for a half-maximal effect (EC50) was 195 nM.
Turning to `O=C1c2ccccc2CN1Cc1ccc(-c2ccncc2)cc1F` [Example B11], the “Emax (%)” value is listed as 71%, the negative logarithm of the EC50 (pEC50) is 5.47 and the EC50 is 3400 nM.
Consider `O=C1c2cccnc2CN1Cc1ccc(-c2ccc3[nH]ncc3c2)cc1F` [Example B36], for which the “Emax (%)” value is 58%, the pEC50 is on record as 6.28 and the EC50 was 525 nM.
In the case of `O=C1c2cccnc2CN1Cc1c(F)cc(-c2ccc3cnccc3c2)cc1F` [Example B97], the “Emax (%)” value is on record as 62%, the pEC50 was 6.23 and the concentration for a half-maximal effect (EC50) is 589 nM.
`CN(C)c1ccc(-c2ccc(CN3Cc4ncccc4C3=O)c(F)c2)cn1` [Example B39]: the “Emax (%)” value is reported as 31%, the pEC50 was 5.98 and the EC50 is 1050 nM.
Take `Cn1ncc2ccc(-c3ccc(CN4Cc5cccnc5C4=O)c(F)c3)cc21` [Example B60]: the “Emax (%)” value is reported as 76%, the pEC50 is 5.80 and the EC50 is 1590 nM.
As for `O=C1c2cccnc2CN1Cc1c(F)cc(-c2ccc3nccn3c2)cc1F` [Example B80], the “Emax (%)” value amounted to 57%, the pEC50 was 6.07 and the EC50 is 851 nM.
For the molecule `O=C1c2ncccc2CN1Cc1ccc(-c2ccncc2)cc1Cl` [Example B68], the “Emax (%)” value came out at 56%, the pEC50 was under 5.00 and the EC50 is over 10000 nM.
With `O=C1c2cccnc2CN1Cc1c(F)cc(-c2cccc3ncccc23)cc1F` [Example B95], the “Emax (%)” value was found to be 53%, the pEC50 is on record as under 5.00 and the half-maximal effective concentration (EC50) is over 10000 nM.
For `O=C1c2cccnc2CN1Cc1ccc(-c2ccc3cnccc3c2)cc1F` [Example B44], the “Emax (%)” value is listed as 65%, the pEC50 was 6.04 and the EC50 was 912 nM.
`Cn1cc(-c2ccc(CN3Cc4ccccc4C3=O)cn2)cn1` [Example B17]: the “Emax (%)” value came out at 40%, the pEC50 is under 5.00 and the EC50 was over 10000 nM.
Take `COc1cncc(-c2ccc(CN3Cc4ncccc4C3=O)c(F)c2)c1` [Example B43]: the “Emax (%)” value is on record as 47%, the pEC50 is on record as under 5.00 and the half-maximal effective concentration (EC50) was over 10000 nM.
Turning to `CN(C)c1ccc(-c2ccc(CN3Cc4cccnc4C3=O)c(F)c2)cn1` [Example B78], the “Emax (%)” value turned out to be 48%, the pEC50 was 5.90 and the EC50 is 1260 nM.
For the molecule `CN(C)c1ccc(-c2ccc(CN3Cc4cccnc4C3=O)c(Cl)c2)cn1` [Example B74], the “Emax (%)” value is 58%, the pEC50 was 5.73 and the half-maximal effective concentration (EC50) was 1860 nM.
Take `O=C1c2ncccc2CN1Cc1ccc(-c2ccc3ccncc3c2)cc1F` [Example B70]: the “Emax (%)” value was found to be 59%, the pEC50 was 5.68 and the EC50 is 2090 nM.
Consider `O=C1c2cccnc2CN1Cc1ccc(-c2ccc3ccncc3c2)cc1F` [Example B49], for which the “Emax (%)” value was determined as 68%, the pEC50 is recorded as 5.81 and the EC50 was 1550 nM.
As for `Cc1nnc(-c2ccc(CN3Cc4ccccc4S3(=O)=O)cc2)o1` [Example B123], the “Emax (%)” value is under 30%, the negative logarithm of the EC50 (pEC50) is recorded as under 5.00 and the EC50 was over 10000 nM.
Turning to `O=C1c2cccnc2CN1Cc1ccc(-c2ccc3cc[nH]c3c2)cc1F` [Example B28], the “Emax (%)” value worked out at 34%, the pEC50 is under 5.00 and the EC50 was over 10000 nM.
